# Source: PubChem BioAssay AID2060485 (Molecular Pharmacology Branch, DTP, NCI, 2025)
# Tested on: A375 multi-cell spheroids with HUVEC/MSC, viability
# Assay: Anticancer human tumor A375 cell line growth inhibition [GQUAD];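 note: spheroids exposed to compounds for seven days before readout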
# Details: for IC50: curve of first compound; for viability, T/C: stronger effect = lower value
# Summary of the method: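 Tumor cells were grown as complex spheroids with HUVEC endothelial cells and mesenchymal stem cells as stroma. G-quadruplex stabilizers were combined with targeted agents over half-log dilutions from near the clinical Cmax, or from 10 microM.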
# [1] = second compound 0.0316 µM, first compound 0.0316 µM
# [2] = second compound 0.0316 µM, first compound 0.316 µM
# [3] = second compound 0.1 µM, first compound 0.0316 µM
# [4] = second compound 0.1 µM, first compound 0.316 µM
# [5] = second compound 0.316 µM, first compound 0.0316 µM
# [6] = second compound 0.316 µM, first compound 0.316 µM
# [7] = second compound 1 µM, first compound 0.0316 µM
# [8] = second compound 1 µM, first compound 0.316 µM
# [9] = second compound 3.16 µM, first compound 0.0316 µM
# [10] = second compound 3.16 µM, first compound 0.316 µM
# [11] = second compound 10 µM, first compound 0.0316 µM
# [12] = second compound 10 µM, first compound 0.316 µM
# [13] = second compound 0.0316 µM, first compound 0.1 µM
# [14] = second compound 0.0316 µM, first compound 1 µM
# [15] = second compound 0.0316 µM, first compound 3.16 µM
# [16] = second compound 0.0316 µM, first compound 10 µM
# [17] = second compound 0.1 µM, first compound 0.1 µM
# [18] = second compound 0.1 µM, first compound 1 µM
# [19] = second compound 0.1 µM, first compound 3.16 µM
# [20] = second compound 0.1 µM, first compound 10 µM
# [21] = second compound 0.316 µM, first compound 0.1 µM
# [22] = second compound 0.316 µM, first compound 1 µM
# [23] = second compound 0.316 µM, first compound 3.16 µM
# [24] = second compound 0.316 µM, first compound 10 µM
# [25] = second compound 1 µM, first compound 0.1 µM
# [26] = second compound 1 µM, first compound 1 µM
# [27] = second compound 1 µM, first compound 3.16 µM
# [28] = second compound 1 µM, first compound 10 µM
# [29] = second compound 3.16 µM, first compound 0.1 µM
# [30] = second compound 3.16 µM, first compound 1 µM
# [31] = second compound 3.16 µM, first compound 3.16 µM
# [32] = second compound 3.16 µM, first compound 10 µM
# [33] = second compound 10 µM, first compound 0.1 µM
# [34] = second compound 10 µM, first compound 1 µM
# [35] = second compound 10 µM, first compound 3.16 µM
# [36] = second compound 10 µM, first compound 10 µM
smiles,measurement,setting,value
Cc1[nH]c2ccccc2c1CCNCc1ccc(/C=C/C(=O)NO)cc1 + CN(C)c1ccc(Nc2c3ccc(NC(=O)CCN4CCCC4)cc3nc3cc(NC(=O)CCN4CCCC4)ccc23)cc1,IC50,second compound 0.0316 µM,156 nM
same,IC50,second compound 0.1 µM,133 nM
same,IC50,second compound 0.316 µM,127 nM
same,IC50,second compound 1 µM,119 nM
same,IC50,second compound 3.16 µM,106 nM
same,IC50,second compound 10 µM,97.7 nM
same,"viability, T/C","second compound 0.0316 µM, first compound 0.000999 µM",111%
same,"viability, T/C","second compound 0.0316 µM, first compound 0.00316 µM",101%
same,"viability, T/C","second compound 0.0316 µM, first compound 0.00999 µM",110%
same,"viability, T/C",[1],122%
same,"viability, T/C","second compound 0.0316 µM, first compound 0.0999 µM",76%
same,"viability, T/C",[2],9.06%
same,"viability, T/C","second compound 0.1 µM, first compound 0.000999 µM",99.1%
same,"viability, T/C","second compound 0.1 µM, first compound 0.00316 µM",110%
same,"viability, T/C","second compound 0.1 µM, first compound 0.00999 µM",124%
same,"viability, T/C",[3],127%
same,"viability, T/C","second compound 0.1 µM, first compound 0.0999 µM",64%
same,"viability, T/C",[4],7.22%
same,"viability, T/C","second compound 0.316 µM, first compound 0.000999 µM",107%
same,"viability, T/C","second compound 0.316 µM, first compound 0.00316 µM",110%
same,"viability, T/C","second compound 0.316 µM, first compound 0.00999 µM",111%
same,"viability, T/C",[5],114%
same,"viability, T/C","second compound 0.316 µM, first compound 0.0999 µM",61.5%
same,"viability, T/C",[6],7.25%
same,"viability, T/C","second compound 1 µM, first compound 0.000999 µM",104%
same,"viability, T/C","second compound 1 µM, first compound 0.00316 µM",113%
same,"viability, T/C","second compound 1 µM, first compound 0.00999 µM",116%
same,"viability, T/C",[7],110%
same,"viability, T/C","second compound 1 µM, first compound 0.0999 µM",58%
same,"viability, T/C",[8],5.35%
same,"viability, T/C","second compound 3.16 µM, first compound 0.000999 µM",98.4%
same,"viability, T/C","second compound 3.16 µM, first compound 0.00316 µM",106%
same,"viability, T/C","second compound 3.16 µM, first compound 0.00999 µM",113%
same,"viability, T/C",[9],114%
same,"viability, T/C","second compound 3.16 µM, first compound 0.0999 µM",52.3%
same,"viability, T/C",[10],5.53%
same,"viability, T/C","second compound 10 µM, first compound 0.000999 µM",111%
same,"viability, T/C","second compound 10 µM, first compound 0.00316 µM",98.7%
same,"viability, T/C","second compound 10 µM, first compound 0.00999 µM",112%
same,"viability, T/C",[11],106%
same,"viability, T/C","second compound 10 µM, first compound 0.0999 µM",48.9%
same,"viability, T/C",[12],3.5%
O=C(NO)c1cnc(N2CCN(S(=O)(=O)c3ccc4ccccc4c3)CC2)nc1 + CN(C)c1ccc(Nc2c3ccc(NC(=O)CCN4CCCC4)cc3nc3cc(NC(=O)CCN4CCCC4)ccc23)cc1,IC50,second compound 0.0316 µM,188 nM
same,IC50,second compound 0.1 µM,191 nM
same,IC50,second compound 0.316 µM,186 nM
same,IC50,second compound 1 µM,190 nM
same,IC50,second compound 3.16 µM,189 nM
same,IC50,second compound 10 µM,189 nM
same,"viability, T/C",[1],121%
same,"viability, T/C",[13],105%
same,"viability, T/C",[2],4.84%
same,"viability, T/C",[14],0.29%
same,"viability, T/C",[15],0.27%
same,"viability, T/C",[16],0.29%
same,"viability, T/C",[3],107%
same,"viability, T/C",[17],108%
same,"viability, T/C",[4],5.35%
same,"viability, T/C",[18],0.26%
same,"viability, T/C",[19],0.22%
same,"viability, T/C",[20],0.25%
same,"viability, T/C",[5],108%
same,"viability, T/C",[21],103%
same,"viability, T/C",[6],4.36%
same,"viability, T/C",[22],0.25%
same,"viability, T/C",[23],0.21%
same,"viability, T/C",[24],0.23%
same,"viability, T/C",[7],104%
same,"viability, T/C",[25],110%
same,"viability, T/C",[8],5.11%
same,"viability, T/C",[26],0.26%
same,"viability, T/C",[27],0.2%
same,"viability, T/C",[28],0.22%
same,"viability, T/C",[9],103%
same,"viability, T/C",[29],110%
same,"viability, T/C",[10],4.25%
same,"viability, T/C",[30],0.25%
same,"viability, T/C",[31],0.22%
same,"viability, T/C",[32],0.24%
same,"viability, T/C",[11],102%
same,"viability, T/C",[33],107%
same,"viability, T/C",[12],6.02%
same,"viability, T/C",[34],0.26%
same,"viability, T/C",[35],0.93%
same,"viability, T/C",[36],0.25%
COc1ccc([C@@H](O)c2cc(-c3ncnc4cc(N5CCOCC5)ccc34)c(F)cc2Cl)nn1 + Cc1[nH]c2ccc(F)cc2c1-c1nc2c3cccnc3c3ncccc3c2[nH]1,IC50,second compound 0.0316 µM,> 10000 nM
same,IC50,second compound 0.1 µM,> 10000 nM
same,IC50,second compound 0.316 µM,> 10000 nM
same,IC50,second compound 1 µM,> 10000 nM
same,IC50,second compound 3.16 µM,> 10000 nM
same,IC50,second compound 10 µM,> 10000 nM
same,"viability, T/C",[1],105%
same,"viability, T/C",[13],108%
same,"viability, T/C",[2],103%
same,"viability, T/C",[14],126%
same,"viability, T/C",[15],100%
same,"viability, T/C",[16],77.5%
same,"viability, T/C",[3],106%
same,"viability, T/C",[17],102%
same,"viability, T/C",[4],105%
same,"viability, T/C",[18],112%
same,"viability, T/C",[19],96.6%
same,"viability, T/C",[20],85.6%
same,"viability, T/C",[5],103%
same,"viability, T/C",[21],112%
same,"viability, T/C",[6],105%
same,"viability, T/C",[22],110%
same,"viability, T/C",[23],95.3%
same,"viability, T/C",[24],87.9%
same,"viability, T/C",[7],106%
same,"viability, T/C",[25],112%
same,"viability, T/C",[8],109%
same,"viability, T/C",[26],113%
same,"viability, T/C",[27],98.2%
same,"viability, T/C",[28],68.1%
same,"viability, T/C",[9],101%
same,"viability, T/C",[29],96%
same,"viability, T/C",[10],101%
same,"viability, T/C",[30],79.1%
same,"viability, T/C",[31],77.2%
same,"viability, T/C",[32],50.4%
same,"viability, T/C",[11],113%
same,"viability, T/C",[33],107%
same,"viability, T/C",[12],122%
same,"viability, T/C",[34],97.2%
same,"viability, T/C",[35],78.2%
same,"viability, T/C",[36],56.3%
